# Measurements as given in US20240415914A1, “Water Dispersible Cannabinoid Compositions” (priority 2021, published 2024).
# Where two headings read alike, the source gives them in different places.
# Experiments:
# [1] = type: physicochemical; settings: stored at room temperature (21-25° C.)
# Experimental: At each time period, 0.05 g of powder was dissolved in 10 ml-15 of ethanol, diluted to fall within the analytical range, and injected into the LCMSMS for analysis.
# [2] = Stability of cannabinoid and Vitamin E components of Beverage 2 (AB Red) stored at 8° C. and 21-25° C., LCMSMS over 570 days
# Experimental: The LCMSMS was calibrated for 0-50 ng/ml cannabinoids with the same resin material used in the preparation of the concentrates. At each time period, 100 μml of beverage was diluted with 10 ml of methanol and injected into the LCMSMS for analysis.
smiles,measurement,setting,value
"C=C(C)[C@@H]1CCC(C)=C[C@H]1c1c(O)cc(CCCCC)c(C(=O)O)c1O [CBDA, cannabidiolic acid]",Stability in Powder Concentrate (content by LCMSMS),[1]; day 0,0.410 mg/g powder
same,Stability in Powder Concentrate (content by LCMSMS),[1]; day 1,0.412 mg/g powder
same,Stability in Powder Concentrate (content by LCMSMS),[1]; day 2,0.407 mg/g powder
same,Stability in Powder Concentrate (content by LCMSMS),[1]; day 3,0.406 mg/g powder
same,Stability in Powder Concentrate (content by LCMSMS),[1]; day 5,0.414 mg/g powder
same,Stability in Powder Concentrate (content by LCMSMS),[1]; day 8,0.415 mg/g powder
same,Stability in Powder Concentrate (content by LCMSMS),[1]; day 9,0.410 mg/g powder
same,Stability in Powder Concentrate (content by LCMSMS),[1]; day 10,0.418 mg/g powder
same,Stability in Powder Concentrate (content by LCMSMS),[1]; day 11,0.415 mg/g powder
same,Stability in Powder Concentrate (content by LCMSMS),[1]; day 12,0.396 mg/g powder
same,Stability in Powder Concentrate (content by LCMSMS),[1]; day 15,0.399 mg/g powder
same,Stability in Powder Concentrate (content by LCMSMS),[1]; day 16,0.427 mg/g powder
same,Stability in Powder Concentrate (content by LCMSMS),[1]; day 17,0.421 mg/g powder
same,Stability in Powder Concentrate (content by LCMSMS),[1]; day 18,0.418 mg/g powder
same,Stability in Powder Concentrate (content by LCMSMS),[1]; day 19,0.414 mg/g powder
same,Stability in Powder Concentrate (content by LCMSMS),[1]; day 22,0.419 mg/g powder
same,Stability in Powder Concentrate (content by LCMSMS),[1]; day 23,0.396 mg/g powder
same,Stability in Powder Concentrate (content by LCMSMS),[1]; day 24,0.403 mg/g powder
same,Stability in Powder Concentrate (content by LCMSMS),[1]; day 25,0.401 mg/g powder
same,Stability in Powder Concentrate (content by LCMSMS),[1]; day 26,0.397 mg/g powder
same,Stability in Powder Concentrate (content by LCMSMS),[1]; day 29,0.426 mg/g powder
same,Stability in Powder Concentrate (content by LCMSMS),[1]; day 30,0.405 mg/g powder
same,Stability in Powder Concentrate (content by LCMSMS),[1]; day 60,0.418 mg/g powder
same,Stability in Powder Concentrate (content by LCMSMS),[1]; day 90,0.413 mg/g powder
same,Stability in Powder Concentrate (content by LCMSMS),[1]; day 120,0.403 mg/g powder
same,Stability in Powder Concentrate (content by LCMSMS),[1]; day 150,0.412 mg/g powder
same,Stability in Powder Concentrate (content by LCMSMS),[1]; day 180,0.422 mg/g powder
same,Stability in Powder Concentrate (content by LCMSMS),[1]; day 210,0.427 mg/g powder
same,Stability in Powder Concentrate (content by LCMSMS),[1]; day 240,0.417 mg/g powder
same,Stability in Powder Concentrate (content by LCMSMS),[1]; day 270,0.424 mg/g powder
same,Stability in Powder Concentrate (content by LCMSMS),[1]; day 300,0.409 mg/g powder
same,Stability in Powder Concentrate (content by LCMSMS),[1]; day 330,0.424 mg/g powder
same,Stability in Powder Concentrate (content by LCMSMS),[1]; day 360,0.413 mg/g powder
same,Stability in Powder Concentrate (content by LCMSMS),[1]; day 390,0.407 mg/g powder
same,Stability in Powder Concentrate (content by LCMSMS),[1]; day 420,0.420 mg/g powder
same,Stability in Powder Concentrate (content by LCMSMS),[1]; day 450,0.398 mg/g powder
same,Stability in Powder Concentrate (content by LCMSMS),[1]; day 480,0.418 mg/g powder
same,Stability in Powder Concentrate (content by LCMSMS),[1]; day 510,0.411 mg/g powder
same,Stability in Powder Concentrate (content by LCMSMS),[1]; day 540,0.425 mg/g powder
same,Stability in Powder Concentrate (content by LCMSMS),[1]; day 570,0.408 mg/g powder
same,Stability of Cannabinoids in AB Red,"[2]; 8° C., 0 days",1.68 µg/mL
same,Stability of Cannabinoids in AB Red,"[2]; 8° C., 1 days",1.69 µg/mL
same,Stability of Cannabinoids in AB Red,"[2]; 8° C., 2 days",1.66 µg/mL
same,Stability of Cannabinoids in AB Red,"[2]; 8° C., 3 days",1.64 µg/mL
same,Stability of Cannabinoids in AB Red,"[2]; 8° C., 5 days",1.67 µg/mL
same,Stability of Cannabinoids in AB Red,"[2]; 8° C., 8 days",1.68 µg/mL
same,Stability of Cannabinoids in AB Red,"[2]; 8° C., 9 days",1.65 µg/mL
same,Stability of Cannabinoids in AB Red,"[2]; 8° C., 10 days",1.67 µg/mL
same,Stability of Cannabinoids in AB Red,"[2]; 8° C., 11 days",1.65 µg/mL
same,Stability of Cannabinoids in AB Red,"[2]; 8° C., 12 days",1.68 µg/mL
same,Stability of Cannabinoids in AB Red,"[2]; 8° C., 15 days",1.67 µg/mL
same,Stability of Cannabinoids in AB Red,"[2]; 8° C., 16 days",1.69 µg/mL
same,Stability of Cannabinoids in AB Red,"[2]; 8° C., 17 days",1.64 µg/mL
same,Stability of Cannabinoids in AB Red,"[2]; 8° C., 18 days",1.65 µg/mL
same,Stability of Cannabinoids in AB Red,"[2]; 8° C., 19 days",1.68 µg/mL
same,Stability of Cannabinoids in AB Red,"[2]; 8° C., 22 days",1.70 µg/mL
same,Stability of Cannabinoids in AB Red,"[2]; 8° C., 23 days",1.63 µg/mL
same,Stability of Cannabinoids in AB Red,"[2]; 8° C., 24 days",1.70 µg/mL
same,Stability of Cannabinoids in AB Red,"[2]; 8° C., 25 days",1.63 µg/mL
same,Stability of Cannabinoids in AB Red,"[2]; 8° C., 26 days",1.63 µg/mL
same,Stability of Cannabinoids in AB Red,"[2]; 8° C., 29 days",1.66 µg/mL
same,Stability of Cannabinoids in AB Red,"[2]; 8° C., 30 days",1.70 µg/mL
same,Stability of Cannabinoids in AB Red,"[2]; 8° C., 60 days",1.66 µg/mL
same,Stability of Cannabinoids in AB Red,"[2]; 8° C., 90 days",1.68 µg/mL
same,Stability of Cannabinoids in AB Red,"[2]; 8° C., 120 days",1.65 µg/mL
same,Stability of Cannabinoids in AB Red,"[2]; 8° C., 150 days",1.66 µg/mL
same,Stability of Cannabinoids in AB Red,"[2]; 8° C., 180 days",1.60 µg/mL
same,Stability of Cannabinoids in AB Red,"[2]; 8° C., 210 days",1.65 µg/mL
same,Stability of Cannabinoids in AB Red,"[2]; 8° C., 240 days",1.66 µg/mL
same,Stability of Cannabinoids in AB Red,"[2]; 8° C., 270 days",1.63 µg/mL
same,Stability of Cannabinoids in AB Red,"[2]; 8° C., 300 days",1.65 µg/mL
same,Stability of Cannabinoids in AB Red,"[2]; 8° C., 330 days",1.60 µg/mL
same,Stability of Cannabinoids in AB Red,"[2]; 8° C., 390 days",1.63 µg/mL
same,Stability of Cannabinoids in AB Red,"[2]; 8° C., 420 days",1.63 µg/mL
same,Stability of Cannabinoids in AB Red,"[2]; 8° C., 450 days",1.63 µg/mL
same,Stability of Cannabinoids in AB Red,"[2]; 8° C., 480 days",1.60 µg/mL
same,Stability of Cannabinoids in AB Red,"[2]; 8° C., 510 days",1.55 µg/mL
same,Stability of Cannabinoids in AB Red,"[2]; 8° C., 540 days",1.55 µg/mL
same,Stability of Cannabinoids in AB Red,"[2]; 8° C., 570 days",1.54 µg/mL
same,Stability of Cannabinoids in AB Red,"[2]; 21-25° C., 0 days",1.68 µg/mL
same,Stability of Cannabinoids in AB Red,"[2]; 21-25° C., 1 days",1.70 µg/mL
same,Stability of Cannabinoids in AB Red,"[2]; 21-25° C., 2 days",1.65 µg/mL
same,Stability of Cannabinoids in AB Red,"[2]; 21-25° C., 3 days",1.64 µg/mL
same,Stability of Cannabinoids in AB Red,"[2]; 21-25° C., 5 days",1.69 µg/mL
same,Stability of Cannabinoids in AB Red,"[2]; 21-25° C., 8 days",1.64 µg/mL
same,Stability of Cannabinoids in AB Red,"[2]; 21-25° C., 9 days",1.63 µg/mL
same,Stability of Cannabinoids in AB Red,"[2]; 21-25° C., 10 days",1.61 µg/mL
same,Stability of Cannabinoids in AB Red,"[2]; 21-25° C., 11 days",1.64 µg/mL
same,Stability of Cannabinoids in AB Red,"[2]; 21-25° C., 12 days",1.70 µg/mL
same,Stability of Cannabinoids in AB Red,"[2]; 21-25° C., 15 days",1.64 µg/mL
same,Stability of Cannabinoids in AB Red,"[2]; 21-25° C., 16 days",1.67 µg/mL
same,Stability of Cannabinoids in AB Red,"[2]; 21-25° C., 17 days",1.63 µg/mL
same,Stability of Cannabinoids in AB Red,"[2]; 21-25° C., 18 days",1.65 µg/mL
same,Stability of Cannabinoids in AB Red,"[2]; 21-25° C., 19 days",1.70 µg/mL
same,Stability of Cannabinoids in AB Red,"[2]; 21-25° C., 22 days",1.66 µg/mL
same,Stability of Cannabinoids in AB Red,"[2]; 21-25° C., 23 days",1.63 µg/mL
same,Stability of Cannabinoids in AB Red,"[2]; 21-25° C., 24 days",1.65 µg/mL
same,Stability of Cannabinoids in AB Red,"[2]; 21-25° C., 25 days",1.64 µg/mL
same,Stability of Cannabinoids in AB Red,"[2]; 21-25° C., 26 days",1.67 µg/mL
same,Stability of Cannabinoids in AB Red,"[2]; 21-25° C., 29 days",1.62 µg/mL
same,Stability of Cannabinoids in AB Red,"[2]; 21-25° C., 30 days",1.68 µg/mL
same,Stability of Cannabinoids in AB Red,"[2]; 21-25° C., 60 days",1.59 µg/mL
same,Stability of Cannabinoids in AB Red,"[2]; 21-25° C., 90 days",1.60 µg/mL
same,Stability of Cannabinoids in AB Red,"[2]; 21-25° C., 120 days",1.64 µg/mL
same,Stability of Cannabinoids in AB Red,"[2]; 21-25° C., 150 days",1.58 µg/mL
same,Stability of Cannabinoids in AB Red,"[2]; 21-25° C., 180 days",1.64 µg/mL
same,Stability of Cannabinoids in AB Red,"[2]; 21-25° C., 210 days",1.64 µg/mL
same,Stability of Cannabinoids in AB Red,"[2]; 21-25° C., 240 days",1.60 µg/mL
same,Stability of Cannabinoids in AB Red,"[2]; 21-25° C., 270 days",1.65 µg/mL
same,Stability of Cannabinoids in AB Red,"[2]; 21-25° C., 300 days",1.58 µg/mL
same,Stability of Cannabinoids in AB Red,"[2]; 21-25° C., 330 days",1.65 µg/mL
same,Stability of Cannabinoids in AB Red,"[2]; 21-25° C., 390 days",1.61 µg/mL
same,Stability of Cannabinoids in AB Red,"[2]; 21-25° C., 420 days",1.59 µg/mL
same,Stability of Cannabinoids in AB Red,"[2]; 21-25° C., 450 days",1.57 µg/mL
same,Stability of Cannabinoids in AB Red,"[2]; 21-25° C., 480 days",1.57 µg/mL
same,Stability of Cannabinoids in AB Red,"[2]; 21-25° C., 510 days",1.56 µg/mL
same,Stability of Cannabinoids in AB Red,"[2]; 21-25° C., 540 days",1.57 µg/mL
same,Stability of Cannabinoids in AB Red,"[2]; 21-25° C., 570 days",1.54 µg/mL
